From patent US20250163072A1, “MACROCYCLIC COMPOUNDS FOR THE TREATMENT OF CANCER” (Hoffmann-La Roche Inc., priority 2021, published 2025)

Legend:
[1] = tested on: KRAS G12C in NCI-H358 cells; test: pERK inhibition assay, NCI-H358; format: cell-based, human; details: Homo sapiens, 4 hours incubation
Method: (§1) This assay is to measure the ability of test compounds in inhibiting the phosphorylation of ERK, the downstream signaling of KRAS G12C in NCI-H358 cells, KRAS G12D in AGS cells, and KRAS G12V in SW620. NCI-H358 (ATCC-CRL5807) cells, AGS (ATCC-CRL-1739) cells, SW620 (ATCC-CCL-227) cells were all grown and maintained using RPMI-1640 medium (Thermo Fisher Scientific) with 10% fetal bovine serum and 1% penicillin/streptomycin. On the day prior to compound addition, cells were plated in tissue culture-treated 96 well plates (Corning-3699) at a density of 30,000 cell/well, 20,000 cell/well, 30,000 cell/well for NCI-H358, AGS and SW620 respectively, and allowed for attachment overnight. Diluted compounds were then added in a final concentration of 0.5% DMSO. After 4 hours of incubation, the medium was removed, 100 μL of 4% formaldehyde was added, and the assay plates were incubated at room temperature for 20 minutes. The plates were then washed once with phosphate buffered saline (PBS), and permeabilized with 100 μL of chilled methanol for 10 minutes. Non-specific antibody binding to the plates was blocked using 50 μL 1×BSA blocking buffer (Thermo-37520, 10-fold dilution by Phosphate-Buffered Saline Tween (PBST) for at least 1 hour at room temperature. The amount of phosphor-ERK was determined using an antibody specific for phosphorylated form of ERK. Primary antibody (pERK, CST-4370, Cell Signaling Technology) was diluted 1:300 in blocking buffer, with 50 μL aliquoted to each well, and incubated overnight at 4° C. Cells were washed five times for 5 minutes with PBST. Secondary antibody (HRP-linked anti-rabbit IgG, CST-7074, Cell Signaling Technology) was diluted 1:1000 in blocking buffer, and 50 μL was added to each well and incubated 1-2 hours at room temperature. Cells were washed 5 times for 5 minutes with PBST, 100 μL TMB ELISA substrate (abcam-ab171523) were added and gently shake for 20 minutes. 50 μL stop solution (abcam-ab171529) were added, and then read the signal (OD450) by EnVision. IC50 was determined by fitting a 4-parameter sigmoidal concentration response model.

AGS cells = test: Cell viability assay, AGS; format: cell-based, human; details: Homo sapiens, 72 hours, Cell Counting Kit-8, read-out: G12D IC50
Method: (§2) The purpose of this cellular assay was to determine the effects of test compounds on the proliferation of human cancer cell lines NCI-H358 (ATCC-CRL5807) cells, AGS (ATCC-CRL-1739) cells, SW620 (ATCC-CCL-227) over a 3-day treatment period by quantifying the amount of NADPH present at endpoint using Cell Counting Kit-8. Cells were seeded at 5,000 cells/well (NCI-H358), 2,000 cells/well (AGS) 2,000 cells/well (SW620) in 96-well assay plates (Corning-3699) and incubated overnight. On the day of the assay, diluted compounds were then added in a final concentration of 0.5% DMSO. After 72 hours incubation, a tenth of the volume of cell counting kit 8(Dnjindo-CK04) was added into each well. Read the signal (OD450 minus OD650) using EnVision after 2 hours incubation. IC50 was determined by fitting a 4-parameter sigmoidal concentration response model.

KRAS G12C-BRAF complex = KRAS G12C-BRAF complex (Homo sapiens (Human), UniProt P01116+P62937, G12C); test: KRAS-BRAF with CYPA (50 nM) interaction assay (TR-FRET), G12C; format: binding; details: GMPPNP loaded 6His-KRAS, GST-BRAF RBD
KRAS G12C-BRAF complex, sequence (P01116-2 other isoform, or with tags, fused parts or gaps G12C): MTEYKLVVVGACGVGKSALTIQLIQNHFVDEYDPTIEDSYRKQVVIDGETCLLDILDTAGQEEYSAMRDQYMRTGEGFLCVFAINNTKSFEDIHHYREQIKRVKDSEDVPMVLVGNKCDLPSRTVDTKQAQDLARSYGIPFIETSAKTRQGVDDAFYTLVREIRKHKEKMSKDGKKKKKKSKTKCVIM
KRAS G12C-BRAF complex, sequence (P62937 whole entry): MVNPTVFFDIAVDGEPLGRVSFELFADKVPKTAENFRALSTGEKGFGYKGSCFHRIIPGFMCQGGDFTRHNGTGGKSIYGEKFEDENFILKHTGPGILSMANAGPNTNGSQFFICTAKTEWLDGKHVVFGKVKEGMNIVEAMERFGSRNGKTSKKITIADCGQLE
Method: (§3) In this example, TR-FRET was also used to measure the compound or compound-CYPA dependent disruption of the KRAS G12C-BRAF complex. This protocol was also used to measure disruption of KRAS G12D or KRAS G12V binding to BRAF by a compound of the invention, respectively. In assay buffer containing 25 mM HEPES PH=7.4 (4-(2-hydroxyethyl)-1-piperazineethanesulfonic acid, Thermo, 15630080), 0.002% Tween20, 0.1% BSA, 100 mM NaCl, 5 mM MgCl2, 10 μM GMPPNP (Guanosine 5'-[β,γ-imido]triphosphate trisodium salt hydrate, Sigma, G0635), tagless CYPA, GMPPNP loaded 6His-KRAS proteins, and GST-BRAF^RBD were mixed in a well of a 384-well assay plate at final concentrations of 50 nM, 6.25 nM and 1 nM, respectively. Compound was present in plate wells as a 16-point 3-fold dilution series starting at a final concentration of 10 μM and incubated for 3 hours. A mixture of MAb Anti-6His-XL665 (Cisbio, 61HISXLB) and Mab anti-GST-TB cryptate (Cisbio, 61GSTTLB) was then added at a final concentration of 6.67 nM and 0.21 nM, respectively, and the plate was incubated for an additional 1.5 hours. TR-FRET signal was read on a […] microplate reader (Ex320 nm, Em 665/615 nm). Compounds that facilitate disruption of the KRAS-BRAF complex were identified as those eliciting a decrease in the TR-FRET ratio relative to DMSO control wells.

[2] = target: KRAS G12V binding to BRAF (Homo sapiens (Human), UniProt P01116+P62937, G12V); test: KRAS-BRAF with CYPA (50 nM) interaction assay (TR-FRET), G12V; details: GMPPNP loaded 6His-KRAS, GST-BRAF RBD
KRAS G12V binding to BRAF, sequence (P01116-2 other isoform, or with tags, fused parts or gaps G12V): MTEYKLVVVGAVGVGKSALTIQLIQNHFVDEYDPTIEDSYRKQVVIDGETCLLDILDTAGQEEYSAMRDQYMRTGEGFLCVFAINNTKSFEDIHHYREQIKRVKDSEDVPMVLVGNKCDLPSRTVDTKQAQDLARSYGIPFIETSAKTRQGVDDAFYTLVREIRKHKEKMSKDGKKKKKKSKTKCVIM
KRAS G12V binding to BRAF, sequence (P62937 whole entry): as the sequence (P62937 whole entry) above
Method: as §3

KRAS G12D in AGS cells = test: pERK inhibition assay, AGS; format: cell-based, human; details: Homo sapiens, 4 hours incubation
Method: as §1

SW620 cells = test: Cell viability assay, SW620; format: cell-based, human; details: Homo sapiens, SW-620, SW620, 72 hours, Cell Counting Kit-8, read-out: G12V IC50
Method: as §2

[3] = target: KRAS G12D binding to BRAF (Homo sapiens (Human), UniProt P01116+P62937, G12D); test: KRAS-BRAF with CYPA (50 nM) interaction assay (TR-FRET), G12D; details: GMPPNP loaded 6His-KRAS, GST-BRAF RBD
KRAS G12D binding to BRAF, sequence (P01116-2 other isoform, or with tags, fused parts or gaps G12D): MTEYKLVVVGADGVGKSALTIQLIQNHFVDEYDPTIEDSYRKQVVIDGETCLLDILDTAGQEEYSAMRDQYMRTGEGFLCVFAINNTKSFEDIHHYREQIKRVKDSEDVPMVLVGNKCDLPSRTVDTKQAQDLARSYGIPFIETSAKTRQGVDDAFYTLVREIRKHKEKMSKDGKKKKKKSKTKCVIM
KRAS G12D binding to BRAF, sequence (P62937 whole entry): as the sequence (P62937 whole entry) above
Method: as §3

KRAS G12V in SW620 = test: pERK inhibition assay, SW620; format: cell-based, human; details: Homo sapiens, SW-620, SW620 cells, 4 hours incubation
Method: as §1

NCI-H358 cells = test: Cell viability assay, NCI-H358; format: cell-based, human; details: Homo sapiens, NCI-H358, 72 hours, Cell Counting Kit-8, read-out: G12C IC50
Method: as §2

Row | Compound | IC50 [1] | IC50 (AGS cells) | IC50 (KRAS G12C-BRAF complex) | IC50 [2] | IC50 (KRAS G12D in AGS cells) | IC50 (SW620 cells) | IC50 [3] | IC50 (KRAS G12V in SW620) | IC50 (NCI-H358 cells)
1 | CCn1c(-c2cccnc2[C@H](C)OC)c2c3cc(ccc31)-c1cc(O)cc(c1)C[C@H](NC(=O)[C@H](C(C)C)N(C)C(=O)C1CC(C=O)C1)C(=O)N1CCC[C@H](N1)C(=O)OCC(C)(C)C2 (stereo partly drawn) [Example 3, N-[(1S)-1-[[(8S,14S)-22-ethyl-4-hydroxy-(21M)-21-[2-[(1S)-1-methoxyethyl]-3-pyridyl]-18,18-dimethyl-9,15-dioxo-16-oxa-10,22,28-triazapentacyclo[18.5.2.12,6.110,14.023,27]nonacosa-1(26),2,4,6(29),20,23(27),24-heptaen-8-yl]carbamoyl]-2-methyl-propyl]-3-formyl-N-methyl-cyclobutanecarboxamide] | 9 nM | 1300 nM | 1 nM | 110 nM | 683 nM | 684 nM | 1030 nM | 245 nM | 41 nM
2 | CO[C@@H](C)c1ncc(N2CCN(C)CC2)cc1-c1c2c3cc(ccc3n1CC(F)(F)F)-c1csc(n1)C[C@H](NC(=O)[C@H](C(C)C)N(C)C(=O)C1(F)CCN(C(=O)[C@H](F)Cl)CC1)C(=O)N1CCC[C@H](N1)C(=O)OCC(C)(C)C2 (atropisomer, axis not shown; (M)) [Example 20, 1-[(2R)-2-chloro-2-fluoro-acetyl]-4-fluoro-N-[(1S)-1-[[(7S,13S)-(20M)-20-[2-[(1S)-1-methoxyethyl]-5-(4-methylpiperazin-1-yl)-3-pyridyl]-17,17-dimethyl-8,14-dioxo-21-(2,2,2-trifluoroethyl)-15-oxa-4-thia-9,21,27,28-tetrazapentacyclo[17.5.2.12,5.19,13.022,26]octacosa-1(25),2,5(28),19,22(26),23-hexaen-7-yl]carbamoyl]-2-methyl-propyl]-N-methyl-piperidine-4-carboxamide] | 1 nM | 18 nM | 11 nM | 1170 nM | 11 nM | 5 nM | 415 nM | 3 nM | 0.2 nM
3 | CCn1c(-c2cc(N3CCN(CC(F)(F)F)CC3)cnc2[C@H](C)OC)c2c3cc(ccc31)-c1csc(n1)C[C@H](NC(=O)[C@H](C(C)C)N(C)C(=O)[C@H]1CCN(C(=O)[C@H](F)Cl)C1)C(=O)N1CCC[C@H](N1)C(=O)OCC(C)(C)C2 (atropisomer, axis not shown; (M)) [Example 26, (3S)-1-[(2R)-2-chloro-2-fluoro-acetyl]-N-[(1S)-1-[[(7S,13S)-21-ethyl-(20M)-20-[2-[(1S)-1-methoxyethyl]-5-[4-(2,2,2-trifluoroethyl)piperazin-1-yl]-3-pyridyl]-17,17-dimethyl-8,14-dioxo-15-oxa-4-thia-9,21,27,28-tetrazapentacyclo[17.5.2.12,5.19,13.022,26]octacosa-1(25),2,5(28),19,22(26),23-hexaen-7-yl]carbamoyl]-2-methyl-propyl]-N-methyl-pyrrolidine-3-carboxamide] | 1 nM | 140 nM | 36 nM | 200 nM | 35 nM | 45 nM | 2720 nM | 13 nM | < 0.6 nM
4 | CCn1c(-c2cccnc2[C@H](C)OC)c2c3cc(ccc31)-c1cc(O)cc(c1)C[C@H](NC(=O)[C@H](C(C)C)N(C)C(=O)[C@H]1CCN(C(=O)/C=C/n3cncn3)C1)C(=O)N1CCC[C@H](N1)C(=O)OCC(C)(C)C2 (atropisomer, axis not shown; (M)) [Example 9, (3S)-N-[(1S)-1-[[(8S,14S)-22-ethyl-4-hydroxy-(21M)-21-[2-[(1S)-1-methoxyethyl]-3-pyridyl]-18,18-dimethyl-9,15-dioxo-16-oxa-10,22,28-triazapentacyclo[18.5.2.12,6.110,14.023,27]nonacosa-1(26),2,4,6(29),20,23(27),24-heptaen-8-yl]carbamoyl]-2-methyl-propyl]-N-methyl-1-[(E)-3-(1,2,4-triazol-1-yl)prop-2-enoyl]pyrrolidine-3-carboxamide] | 229 nM |  | 38 nM | 103 nM |  | 853 nM | 1930 nM | 742 nM | 29 nM
